This note sets out measurements from patent EP0745595A1, “3-(3-Aryloxyphenyl)-1-(substituted methyl)-s-triazine-2,4,6-oxo or thiotrione herbicidal agents” (American Cyanamid Company, priority 1995, dated 1996).

Holding throughout (type): in vivo
Series [1] relates to AMBROSIA ARTEMISIIFOLIA, L. The series is described as follows: Preemergence herbicidal evaluation, AMBEL (Ragweed, Common). The following applies: for AMBEL herbicidal rating: rated four to five weeks after treatment. Put shortly:
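Seeds sown in potting soil cups, then sprayed preemergence with aqueous acetone compound solution at about 0.125 to 0.50 kg per hectare. Greenhouse-grown, rated 4–5 weeks after treatment on a 0–9 visual scale against control.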

Another series has as its system ECHINOCHLOA CRUS-GALLI. The series is described as follows: Preemergence evaluation in the presence of transplanted rice under flooded paddy conditions (Example 43), ECHCG (Barnyard Grass). Set-up: key: visual rating on a 0-9 scale, compared with control. Particulars: applied three days after sowing, 25 to 30 days after treatment. The procedure:
(§1) Results of herbicide evaluation are expressed on a rating scale (0-9). The scale is based upon a visual observation of plant stand, vigor, malformation, size, chlorosis and overall plant appearance as compared with a control.
(§2) In this example, Deluvian paddy soil (Toyokawa paddy soil) is placed in plastic pots, 100cm^2 x 9 cm in depth. Water is added to the level of the soil surface in the pot and the mixture is paddled 3 cm in depth.
(§3) Pots are then variously sown with monocotyledenous weed seeds and tubers at 0-2 cm in soil depth, as well as transplanted rice plants at the 2.5 leaf stage. The rice plants are transplanted at about 3 cm soil depth. Water is then added to all of the pots to 3 cm deep and kept at a depth of 3 cm for the duration of the test. Test compounds are applied in the manner described in Example 42 three days after transplanting the rice plants and sowing the weed seeds and tubers. The pots are then placed on greenhouse benches and cared for in the conventional manner. Tests are examined at 25 to 30 days after treatment and rated according to the rating system provided in Example 40. The compounds evaluated are reported by compound number given in Example 40.

The subject of a further series is […]. The series is described as follows: Preemergence evaluation in the presence of transplanted rice under flooded paddy conditions (Example 43), MOOVA (Monochoria). The following applies: applied three days after sowing, 25 to 30 days after treatment. The procedure: as §1, §2, §3
In series [2] the test system is ORYZA SATIVA, L. CV. KOSHIHIKARI
The experiment in a line: Post-transplant rice evaluation under flooded paddy conditions (Example 43), ORYSAK (Rice, Koshihikari). Also on record: key: visual rating on a 0-9 scale, compared with control. The following applies: applied three days after transplanting rice, 25 to 30 days after treatment. The procedure: as §1, §2, §3

A further series has as its system CYPERUS DIFFORMIS
The experiment in a line: Preemergence evaluation in the presence of transplanted rice under flooded paddy conditions (Example 43), CYPDI (Flatsedge, smallflower). Set-up: key: visual rating on a 0-9 scale, compared with control. The following applies: applied three days after sowing, 25 to 30 days after treatment. The procedure:
as §1, §2, §3

A further series has as its system SAGITTARIA PYGMAEA. The experiment in a line: Preemergence evaluation in the presence of transplanted rice under flooded paddy conditions (Example 43), SAGPY (Arrowhead (Pygmaea)). The following applies: applied three days after sowing, 25 to 30 days after treatment. Also on record: key: visual rating on a 0-9 scale, compared with control. The procedure: as §1, §2, §3

The test system of a further series is SCIRPUS JUNCOIDES
The series is described as follows: Preemergence evaluation in the presence of transplanted rice under flooded paddy conditions (Example 43), SCPJU (Bulrush, Japanese). Also on record: key: visual rating on a 0-9 scale, compared with control. Particulars: applied three days after sowing, 25 to 30 days after treatment. The procedure:
as §1, §2, §3

The subject of series [3] is SETARIA VIRIDIS, (L) BEAU. The experiment in a line: Preemergence herbicidal evaluation, SETVI (Foxtail, Green). The following applies: for SETVI herbicidal rating: rated four to five weeks after treatment. Put shortly: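 Preemergence herbicidal activity against green foxtail was assessed by planting seed mixed with potting soil over about one inch of soil in individual pint cups. After treatment the cups stayed in a greenhouse under standard care. At four to five weeks, each cup was scored 0-9 relative to a control based on stand, vigor, malformation, size, chlorosis and overall appearance.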

The subject of another series is IPOMOEA SPP. The experiment in a line: Preemergence herbicidal evaluation, IPOSS (Morningglory spp.). The following applies: for IPOSS herbicidal rating: rated four to five weeks after treatment. Put shortly: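 This preemergence greenhouse test scored herbicidal effect on morningglory planted in pint cups, with seed mixed into potting soil and placed over about one inch of soil. After treatment the cups were watered and kept under conventional care. At four to five weeks, plant stand, vigor, malformation, size, chlorosis and overall appearance were compared with a control and rated 0-9.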

In series [4] the test system is ECHINOCHLOA CRUS-GALLI, (L) BEAU. The series is described as follows: Preemergence herbicidal evaluation, ECHCG (Barnyardgrass). Particulars: for ECHCG herbicidal rating: rated four to five weeks after treatment. Put shortly:
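In this preemergence herbicide test, cups holding seeds of ECHCG sown in potting soil over roughly one inch of soil were treated and then grown under conventional greenhouse care. Tests were ended four to five weeks after treatment, and injury was scored 0-9 from stand, vigor, malformation, size, chlorosis and overall appearance relative to a control.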

Series [5] deals with ORYZA SATIVA, L. TEBONNET
The experiment in a line: Preemergence herbicidal evaluation, ORYSAT (Rice, Tebonnet). Particulars: for ORYSAT herbicidal rating: rated four to five weeks after treatment. Put shortly:
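Preemergence herbicidal activity on Tebonnet rice was assessed using pint cups of seeded potting soil kept under conventional greenhouse care after treatment. Tests ended four to five weeks later. Each cup received a 0-9 rating from visual comparison with a control covering stand, vigor, malformation, size, chlorosis and overall appearance.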

As to `Cn1c(=O)[nH]c(=O)n(-c2cc(Oc3c(F)cc(C(F)(F)F)cc3Cl)ccc2F)c1=O` [C, reference compound], the AMBEL in series [1] (Rate 0.031 kg/ha), in series [1] (Rate 0.063 kg/ha), in [1] (Rate 0.125 kg/ha) and in [1] (Rate 0.250 kg/ha) was 0.0 each time.
Take `COC(=O)Cn1c(=O)n(C)c(=O)n(-c2cc(Oc3c(F)cc(C(F)(F)F)cc3Cl)ccc2F)c1=O` [Compound 4, Methyl 3-{5-[(2-chloro-α,α,α,6-tetrafluoro-p-tolyl)oxy]-2-fluorophenyl}tetrahydro-5-methyl-2,4,6-trioxo-s-triazine-1(2H)-acetate]: the “Herbicidal effect rating, ECHCG” value in the series on ECHINOCHLOA CRUS-GALLI (0.032 kg/ha), with ECHINOCHLOA CRUS-GALLI (0.063 kg/ha), in the series on ECHINOCHLOA CRUS-GALLI (0.125 kg/ha) and with ECHINOCHLOA CRUS-GALLI (0.250 kg/ha) was 9.0 in each case. Besides, the “Herbicidal effect rating, MOOVA” value in series […] (0.032 kg/ha), in […] (0.063 kg/ha), in series […] (0.125 kg/ha) and in series […] (0.250 kg/ha) was 9.0 throughout. Moreover, the “Herbicidal effect rating, ORYSAK” value in [2] (0.032 kg/ha) came out at 1.0; in series [2] (0.063 kg/ha), 4.0; in [2] (0.125 kg/ha), 7.0; in series [2] (0.250 kg/ha) it was 9.0. Further, the “Herbicidal effect rating, CYPDI” value in the series with CYPERUS DIFFORMIS (0.032 kg/ha), in the series on CYPERUS DIFFORMIS (0.063 kg/ha), in the series with CYPERUS DIFFORMIS (0.125 kg/ha) and with CYPERUS DIFFORMIS (0.250 kg/ha) was 9.0 each time. In addition, the “Herbicidal effect rating, SAGPY” value is listed as 0.0 in the series on SAGITTARIA PYGMAEA (0.032 kg/ha), 2.0 in the series on SAGITTARIA PYGMAEA (0.063 kg/ha), 6.0 in the series with SAGITTARIA PYGMAEA (0.125 kg/ha) and 9.0 in the series with SAGITTARIA PYGMAEA (0.250 kg/ha). Moreover, the “Herbicidal effect rating, SCPJU” value with SCIRPUS JUNCOIDES (0.032 kg/ha) stood at 7.0; with SCIRPUS JUNCOIDES (0.063 kg/ha) it was 9.0; in the series on SCIRPUS JUNCOIDES (0.125 kg/ha) it was 9.0; in the series on SCIRPUS JUNCOIDES (0.250 kg/ha), 9.0.
In the case of `COC(=O)Cn1c(=O)n(C)c(=O)n(-c2cc(Oc3ccc(SC)cc3Cl)ccc2[N+](=O)[O-])c1=O` [Compound 34, Methyl 3-{5-[2-chloro-4-(methylthio)-phenoxy]-2-nitrophenyl}tetrahydro-5-methyl-2,4,6-trioxo-s-triazine-1(2H)-acetate], the SETVI herbicidal rating in [3] (Rate 0.125 kg/ha), in [3] (Rate 0.250 kg/ha) and in [3] (Rate 0.500 kg/ha) was 0.0 throughout. For the same compound, the IPOSS herbicidal rating in the series with IPOMOEA SPP. (Rate 0.125 kg/ha), in the series with IPOMOEA SPP. (Rate 0.250 kg/ha) and in the series on IPOMOEA SPP. (Rate 0.500 kg/ha) was 0.0 in each case. Further, the ECHCG herbicidal rating in [4] (Rate 0.125 kg/ha), in series [4] (Rate 0.250 kg/ha) and in [4] (Rate 0.500 kg/ha) was 0.0 in each case. The AMBEL herbicidal rating in [1] (Rate 0.125 kg/ha), in series [1] (Rate 0.250 kg/ha) and in series [1] (Rate 0.500 kg/ha) was 0.0 in each case. The ORYSAT herbicidal rating in series [5] (Rate 0.125 kg/ha), in [5] (Rate 0.250 kg/ha) and in series [5] (Rate 0.500 kg/ha) was 0.0 each time.
For `COC(=O)Cn1c(=O)n(C)c(=O)n(-c2cc(Oc3cc(Cl)cc(Cl)c3)ccc2[N+](=O)[O-])c1=O` [Compound 35, Methyl 3-[5-(3,5-dichlorophenoxy)-2-nitrophenyl]tetrahydro-5-methyl-2,4,6-trioxo-s-triazine-1(2H)-acetate], the SETVI herbicidal rating in series [3] (Rate 0.500 kg/ha) is 0.0. For the same compound, in the series with IPOMOEA SPP. (Rate 0.500 kg/ha), the IPOSS herbicidal rating amounted to 0.0. This compound had an ECHCG herbicidal rating in [4] (Rate 0.500 kg/ha) of 0.0. The same compound returned an AMBEL herbicidal rating in [1] (Rate 0.500 kg/ha) of 0.0. The same compound registered an ORYSAT herbicidal rating in [5] (Rate 0.500 kg/ha) of 0.0.
Consider `COC(=O)Cn1c(=O)n(C)c(=O)n(-c2cc(Oc3ccccn3)ccc2[N+](=O)[O-])c1=O` [Compound 38, Methyl tetrahydro-3-methyl-5-[2-nitro-5-(2-pyridyloxy)phenyl]-2,4,6-trioxo-s-triazine-1(2H)-acetate], for which the SETVI herbicidal rating in series [3] (Rate 0.500 kg/ha) was determined as 0.0. The compound further showed an IPOSS herbicidal rating with IPOMOEA SPP. (Rate 0.500 kg/ha) of 0.0. In series [4] (Rate 0.500 kg/ha), this compound displayed an ECHCG herbicidal rating of 0.0. For the same compound, the AMBEL herbicidal rating in series [1] (Rate 0.500 kg/ha) came to 0.0. Further, the ORYSAT herbicidal rating in series [5] (Rate 0.500 kg/ha) was 3.0.
For the compound “Methyl 3-{2-[(2-chloro-α,α,α,-trifluoro-p-tolyl)oxy]phenyl}tetrahydro-5-methyl-2,4,6-trioxo-s-triazine-1(2H)-acetate [Compound 28]”, the SETVI in series [3] (Rate 0.125 kg/ha) came out at 0.0; in series [3] (Rate 0.250 kg/ha) it was 2.0; in series [3] (Rate 0.500 kg/ha) it was 3.0; in [3] (Rate 1.000 kg/ha), 6.0. The SETVI herbicidal rating in series [3] (Rate 0.125 kg/ha) is recorded as 0.0; in series [3] (Rate 0.250 kg/ha), 2.0; in [3] (Rate 0.500 kg/ha), 3.0. Moreover, the IPOSS with IPOMOEA SPP. (Rate 0.125 kg/ha) was determined as 2.0; with IPOMOEA SPP. (Rate 0.250 kg/ha) it was 3.0; in the series with IPOMOEA SPP. (Rate 0.500 kg/ha) it was 6.0; in the series on IPOMOEA SPP. (Rate 1.000 kg/ha) it was 7.0. Also, the IPOSS herbicidal rating in the series on IPOMOEA SPP. (Rate 0.125 kg/ha) stood at 2.0; with IPOMOEA SPP. (Rate 0.250 kg/ha), 3.0; with IPOMOEA SPP. (Rate 0.500 kg/ha), 6.0. Moreover, the ECHCG in series [4] (Rate 0.125 kg/ha) is recorded as 0.0; in [4] (Rate 0.250 kg/ha) it was 2.0; in series [4] (Rate 0.500 kg/ha), 3.0; in series [4] (Rate 1.000 kg/ha), 6.0. For the same compound, the ECHCG herbicidal rating in series [4] (Rate 0.125 kg/ha) was 0.0; in [4] (Rate 0.250 kg/ha) it was 2.0; in series [4] (Rate 0.500 kg/ha), 3.0. Moreover, the AMBEL in series [1] (Rate 0.125 kg/ha) is reported as 5.0; in [1] (Rate 0.250 kg/ha), 5.0; in [1] (Rate 0.500 kg/ha), 7.0; in series [1] (Rate 1.000 kg/ha), 5.0. The values for the AMBEL herbicidal rating in [1] (Rate 0.125 kg/ha), in series [1] (Rate 0.250 kg/ha) and in [1] (Rate 0.500 kg/ha) were 5.0, 5.0 and 7.0, respectively. The ORYSAT is on record as 1.0 in series [5] (Rate 0.125 kg/ha), 2.0 in [5] (Rate 0.250 kg/ha), 4.0 in series [5] (Rate 0.500 kg/ha) and 4.0 in series [5] (Rate 1.000 kg/ha). For the same compound, the ORYSAT herbicidal rating was 1.0 in [5] (Rate 0.125 kg/ha), 2.0 in series [5] (Rate 0.250 kg/ha) and 4.0 in series [5] (Rate 0.500 kg/ha).
